Test results from patent US10695406B2, “Modulation of cellular stress using a B-cell oxidative and/or endoplasmic reticulum stress inhibitor and a targeting agent” (THE UNIVERSITY OF QUEENSLAND, priority 2014, dated 2020).

How the values were obtained:
[1] = test system: MIN6N8 cells; assay: ROS and NO (DHE, DCFDA, Griess assay) in MIN6N8 cells; format: cell-based, murine; conditions: for IL-23 induced oxidation of dihydroethidium (DHE): 50 ng/mL
Method: Activation of ATF6 was assessed as follows: the area in pixels per square millimeter co-stained ATF6 and DAPI (blue and green), and total ATF6 staining (green) was determined in 5 fields of view for each section (n=6 for each condition) using IMAGEJ software version 1.45s. Data are presented as the percentage of ATF6 and DAPI co-fluorescence to the total ATF6 fluorescence. Phosphorylation of Ser-51 of eiF2 α was determined by an AlphaScreen assay as per the manufacturer's instructions (PERKIN-ELMER). The Griess reagent method was performed according to the manufacturer's instructions (MOLECULAR PROBES) to assess the intracellular levels of nitric oxide. 5-(and -6-)-carboxy-2,7-dichlorofluorescein diacetate (DCFDA) assay was used to determine the intracellular levels of H2O2 as previously described (Sakon et al., 2003). Cells were treated with glucose or recombinant cytokines at the concentrations indicated in the figure legends, or with 5 μM thapsigargin (SIGMA-ALDRICH) or 10 μg/mL tunicamycin (SIGMA-ALDRICH) or 0.1-0.5 mM Palmitate (SIGMA-ALDRICH) for the times indicated in the legends. ROS was […] using the dihydroethidium (DHE) fluorescent cell-permeable probe (SIGMA-ALDRICH). MIN6N8 cells plated at 2×10^6/mL were incubated with 3 μM DHE and subsequently treated with DMSO (control), 50 ng/mL IL-23 for 30 minutes±[…] IL-22 at the same time or 30 minutes prior to IL-23.
To determine whether IL-22 was sufficient to prevent the increase in oxidative stress caused by known stressors, for example dihydroethidium (DHE), MIN6N8 cells were exposed to 50 ng/mL IL-23 for 30 minutes±50 ng/mL IL-22 at the same time, or 30 minutes prior to the IL-23 treatment. Superoxide generation was measured using DHE, which fluoresces red and binds DNA after oxidation. Time-lapse imaging (3 frames/min for 30 minutes) was utilized to determine the formation of superoxide (DHE-conversion/fluorescence) in cells after treatment. DAPI fluorescence was captured to visualize nuclei.
The concentration of ROS and NO in MIN6N8 cells treated with 16.6 mM glucose (high glucose), 10 μM H2O2, 0.5 mM palmitic acid or 50 ng/mL cytokines±50 ng/mL IL-22 either at the same time, or 30 minutes prior to the stressor treatment.

[2] = test system: 3T3 adipocytes; assay: 6-NBDG glucose uptake by 3T3 adipocytes with insulin secreted by islets; format: cell-based; conditions: insulin secreted by islets from HFD mice treated with 100 ng/g
Method: 3T3 cells were differentiated into adipocytes as previously described, and all experiments were carried out on day 8 post differentiation. 1×10^4 cells were seeded in a black 96-well plate and cultured in serum free 2.8 mM glucose media prior to the addition of insulin. Cells were treated for 1 h with 2 ng/mL recombinant insulin or total insulin from islet secretions at 37° C. as described in figure legends. Subsequently, cells were incubated with 6-(N-(7-nitrobenx-2-oxa-1,3-diazol-4-yl)amino)-6-deoxyglucose (6-NBDG) (MOLECULAR PROBES) for 20 min before cells were washed with PBS and glucose uptake was determined using a POLARstar Omega plate reader.

[3] = test system: pneumovirus of mice (PVM); assay: Pneumovirus (PVM) infection of neonatal mice with IL-22 administration; format: in vivo, C57BL/6 mice
Method: Total RNA was extracted from animal tissues by homogenizing in TRIzol and separated via chloroform phase separation. RNA was purified using High Pure RNA isolation kit (ROCHE) as per the manufacturer's instructions, including DNASE treatment. Extraction purity was assessed by NANODROP, ensuring the expected A260/280 value for RNA between 1.8 and 2.0. Reverse transcription was performed on 1 μg of RNA using 5×ISCRIPT reaction mix and ISCRIPT reverse transcriptase (BIORAD). Quantitative, reverse transcription polymerase chain reaction (qRT-PCR) was performed to quantify expression of PVM gene Src homology (SH), using specific exon-spanning primer sequences and amplified with SYBR Premix Ex TAQ II polymerase (TAKARA). All gene expression was quantified in duplicate using a Viia 7 Real Time PCR System (APPLIED BIOSYSTEMS) and relative fold changes were calculated using the 2^−ΔΔCt method, comparing to the mean of naïve uninfected mice after normalizing to the β-actin housekeeping gene ACTB.
Five-day old neonatal C57BL/6 mice were administered intraperitoneal (i.p.) injections of either recombinant mouse IL-22 (rmIL-22) (20 ng/g every three days) [R&D Systems, #582-ML/CF], or an irrelevant IgG1 mock treatment control (12.5 μg/mouse, weekly) [Lilly Pharmaceuticals, LSN2404993]. […]
Paraffin embedded left lobes were sectioned onto Superfrost plus slides. […] This scoring system assessed inflammation in the small airspaces, peribronchiolar interstitial, alveolar interstitial and injury in the airway epithelium. The degree of lung injury and inflammation was scored blindly.
Cells infected by PVM were visualized by immunohistochemistry using rabbit anti-mouse PVM antibody (polyclonal at 1:8000) (ALPHA DIAGNOSTIC, PVMNP14-S). […] PVM infection was quantified by counting number of infected cells in 4-5 bronchioles per mouse and expressed as the number of infected cells per length of bronchiole epithelium. All sections were visualized on a VS120-L100 slide scanner microscope (OLYMPUS) and analyzed using OlyVIA v2.4 (OLYMPUS) and IMAGEJ v1.45s.

IL-22: interleukin-22; recombinant murine IL-22 (R&D SYSTEMS) in the mouse experiments
IL-23 induced oxidation of dihydroethidium (DHE) ([1]; 30-minute pre-exposure): completely prevented DHE oxidation
IL-23 induced oxidation of dihydroethidium (DHE) ([1]; concomitant exposure): reduced the degree of oxidation and the number of cells affected
basal NO production ([1]; unstressed cells): decreased basal NO production
production/accumulation of ROS and NO ([1]; β-cells exposed to inflammatory cytokines, FFA, tunicamycin or H2O2): represses the production/accumulation of ROS and NO
reduction in adipocyte 6-NBDG uptake vs insulin from islets of normal chow fed mice [2]: 11%
mice that died between days 5 and 6 post infection ([3]; 20 ng/g i.p. every three days, 100 PFU PVM): 7/9
increase of PVM gene expression (PCR) ([3]; 5 days post infection): 2.2 fold
lung injury score, times higher ([3]; 5 days post infection): 1.7 times
